Assay results taken from ChEMBL document CHEMBL1201862, “PubChem BioAssay data set” (2004).
Active and inactive are the calls of the source.

Tests used:
[1] = viability of uninfected HEp-2 cells – cell-based, HTS, cytotoxicity control for RSV inhibitor project, dose response (AID 2410); format: functional; conditions: human respiratory syncytial virus
Cytochrome P450 2D6 = Cytochrome P450 2D6 (Homo sapiens, UniProt P10635);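 further: CYP2D6 member of a cytochrome P450 panel assay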
Cytochrome P450 2C9 = Cytochrome P450 2C9 (Homo sapiens, UniProt P11712)
Chain of Cytochrome P450 2C9 (P11712 whole entry): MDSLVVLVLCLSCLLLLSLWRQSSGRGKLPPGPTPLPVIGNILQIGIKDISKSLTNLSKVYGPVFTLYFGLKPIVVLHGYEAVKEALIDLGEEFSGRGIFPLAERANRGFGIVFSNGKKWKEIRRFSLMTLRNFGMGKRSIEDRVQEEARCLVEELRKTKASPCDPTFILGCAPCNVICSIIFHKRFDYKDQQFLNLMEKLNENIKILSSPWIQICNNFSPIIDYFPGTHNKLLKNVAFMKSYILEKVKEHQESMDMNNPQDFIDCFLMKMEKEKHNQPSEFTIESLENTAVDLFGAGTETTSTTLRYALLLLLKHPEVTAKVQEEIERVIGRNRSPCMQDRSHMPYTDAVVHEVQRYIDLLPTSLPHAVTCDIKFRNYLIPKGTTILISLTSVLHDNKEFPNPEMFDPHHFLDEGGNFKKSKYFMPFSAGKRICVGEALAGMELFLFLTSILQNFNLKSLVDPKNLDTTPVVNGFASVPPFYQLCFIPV

Cytochrome P450 3A4 = Cytochrome P450 3A4 (Homo sapiens, UniProt P08684);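 further: CYP3A4 tested as one member of a cytochrome P450 panel screen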
Chain of Cytochrome P450 3A4 (P08684 whole entry): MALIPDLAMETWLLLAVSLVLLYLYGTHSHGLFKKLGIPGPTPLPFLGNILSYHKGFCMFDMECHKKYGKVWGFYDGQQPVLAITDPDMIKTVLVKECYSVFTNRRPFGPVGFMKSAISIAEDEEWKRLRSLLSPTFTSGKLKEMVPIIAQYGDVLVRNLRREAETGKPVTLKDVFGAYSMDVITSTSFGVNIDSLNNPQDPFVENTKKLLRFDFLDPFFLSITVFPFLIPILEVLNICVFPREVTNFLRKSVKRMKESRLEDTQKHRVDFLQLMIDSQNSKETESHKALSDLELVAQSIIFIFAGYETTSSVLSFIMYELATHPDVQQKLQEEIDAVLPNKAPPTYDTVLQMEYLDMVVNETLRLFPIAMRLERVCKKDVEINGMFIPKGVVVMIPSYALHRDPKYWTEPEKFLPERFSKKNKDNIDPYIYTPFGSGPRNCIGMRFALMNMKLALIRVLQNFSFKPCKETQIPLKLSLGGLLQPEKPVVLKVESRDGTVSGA

[2] = Trypanosoma cruzi growth suppression in host cells – NIH3T3 host cells, beta-gal luminescence, confirmation (AID 2044); format: functional, cell-based;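 further: intracellular parasites grown in NIH/3T3 mouse fibroblasts as host cells; luminescent beta-galactosidase reporter signal from transgenic T. cruzi replicating inside host cells; inhibitors lower the luminescence signal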
[3] = NIH3T3 cell viability loss – ATP luminescence, mouse fibroblasts, counter-screen, dose response (AID 2010); format: functional, cell-based;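 further: cells exposed to compound for about 90 hours before reading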
Cytochrome P450 1A2 = biological target: T1, Cytochrome P450 1A2 (Homo sapiens, UniProt P05177);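 further: PubChem cytochrome P450 panel assay, CYP1A2 panel member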
T1 sequence (P05177 whole entry): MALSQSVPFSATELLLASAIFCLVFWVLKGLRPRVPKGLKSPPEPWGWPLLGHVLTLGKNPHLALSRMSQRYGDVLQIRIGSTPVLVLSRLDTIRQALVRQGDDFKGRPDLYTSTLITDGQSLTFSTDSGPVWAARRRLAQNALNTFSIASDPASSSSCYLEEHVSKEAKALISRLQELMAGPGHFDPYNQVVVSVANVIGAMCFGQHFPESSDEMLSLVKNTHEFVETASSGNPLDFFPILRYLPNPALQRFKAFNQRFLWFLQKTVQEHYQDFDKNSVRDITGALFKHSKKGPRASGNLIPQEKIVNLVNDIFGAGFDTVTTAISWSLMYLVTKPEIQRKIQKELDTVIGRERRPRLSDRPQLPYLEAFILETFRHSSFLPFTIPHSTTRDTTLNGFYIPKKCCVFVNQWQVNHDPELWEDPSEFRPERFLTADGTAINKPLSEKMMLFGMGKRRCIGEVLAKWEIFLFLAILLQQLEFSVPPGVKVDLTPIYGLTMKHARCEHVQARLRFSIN

[4] = test system: Streptococcus sp. 'group A'; test: Streptococcus pyogenes SK(-)GAS viability under kanamycin – luminescence, BacTiterGlo, confirmation, counter-screen for streptokinase expression inhibitor project, dose response (AID 1900); format: functional, organism-based
Streptococcus = test: GAS UMAA2166 growth inhibition – luminescence, BacTiterGlo, counter-screen for streptokinase expression inhibitor project, dose response (AID 1915); format: functional, organism-based;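 further: potency for reduction of bacterial viability or growth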

Chain of Cytochrome P450 2D6 (P10635 whole entry): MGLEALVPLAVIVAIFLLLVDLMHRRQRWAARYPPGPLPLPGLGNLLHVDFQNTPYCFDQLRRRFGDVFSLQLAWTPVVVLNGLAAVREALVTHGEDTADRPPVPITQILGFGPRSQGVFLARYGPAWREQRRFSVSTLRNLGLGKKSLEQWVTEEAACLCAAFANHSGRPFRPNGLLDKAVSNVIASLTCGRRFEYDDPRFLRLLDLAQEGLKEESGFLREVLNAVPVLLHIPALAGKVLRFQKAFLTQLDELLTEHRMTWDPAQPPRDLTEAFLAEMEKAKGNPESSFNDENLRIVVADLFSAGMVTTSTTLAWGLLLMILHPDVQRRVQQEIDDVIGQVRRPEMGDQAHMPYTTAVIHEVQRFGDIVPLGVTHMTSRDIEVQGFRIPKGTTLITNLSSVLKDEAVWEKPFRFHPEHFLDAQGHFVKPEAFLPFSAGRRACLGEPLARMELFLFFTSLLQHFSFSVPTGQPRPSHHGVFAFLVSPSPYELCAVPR

c1ccc(Nc2nc(-c3ccccc3)nc3ccccc23)cc1
CC50 [1]: 24.8 µM (active)

CCOC(=O)C1=C2SCC(=O)N2C(N)=C(C#N)C1
AC50 (Cytochrome P450 2D6): 11.2 µM (inconclusive) | AC50 (Cytochrome P450 2C9): 20 µM (inconclusive)

Cn1c(=O)c(-c2ccc(F)cc2)nc2cncnc21
AC50 (Cytochrome P450 3A4): 7.94 µM (inconclusive)

S[C@@H]1CCCN(Cc2ccccc2)C1
AC50 (Cytochrome P450 3A4): 3.98 µM (inconclusive)

CC1CCc2nc(NC(=O)c3ccc(S(=O)(=O)N4CCCc5ccccc54)cc3)sc2C1 (stereo not given)
EC50 [2]: 1.42 µM (active) | EC50 [3]: > 60 µM (not active)

CCCC[C@@H]1C[C@H]1C(NC(=O)c1cccnc1)c1ccc(-c2ccccc2)cc1 (stereo not given in full)
AC50 (Cytochrome P450 3A4): 0.794 µM (inconclusive)

CCC(C)c1ccc(NC(=O)c2cccs2)cc1 (stereo not given)
CC50 [1]: < 0.1 µM (active)

Clc1ccccc1CSc1cc2c(nn1)-c1ccccc1CC2
CC50 [1]: 22.9 µM (active)

COc1ccc2nc(O)c(CNc3cccc(C)c3)cc2c1
CC50 [1]: 6.97 µM (active)

CCC(=O)NC(=S)N1CCN(c2ccc([N+](=O)[O-])cc2Cl)CC1
AC50 (Cytochrome P450 3A4): 28.2 µM (inconclusive)

COc1cccc(CNC(=O)C2CCN(S(=O)(=O)N3CCCCC3)CC2)c1
AC50 (Cytochrome P450 2C9): 11.2 µM (inconclusive)

COCc1ccc(CN2CCCC(CCC(=O)NCc3cccc(OC)c3)C2)o1 (stereo not given)
EC50 [2]: 0.914 µM (active) | EC50 [3]: > 60 µM (not active)

O=C(c1ccc(Cl)cc1)N1CCN(c2ccc([N+](=O)[O-])c(NCc3cccnc3)c2)CC1
CC50 [1]: 35.8 µM (active)

COC(=O)CC[C@@H](C)[C@H]1CC[C@H]2[C@H]3CC[C@H]4C[C@@H]5CC[C@@]4(C)C3(O5)[C@@H](Br)[C@@H](Br)[C@@]12C
AC50 (Cytochrome P450 3A4): 3.98 µM (inconclusive)

O=c1cnc2cnc(N3CCOCC3)nc2n1CCc1ccccc1
AC50 (Cytochrome P450 3A4): 15.8 µM (inconclusive)

O=C(c1cccs1)n1nc(-c2ccc(Cl)cc2)nc1NCc1ccco1
AC50 (Cytochrome P450 2C9): 12.6 µM (inconclusive)

Cc1ccc(-n2c(SCc3ccc([N+](=O)[O-])cc3)nc3ccccc3c2=O)cc1
AC50 (Cytochrome P450 3A4): 11.2 µM (inconclusive) | AC50 (Cytochrome P450 2C9): 0.0891 µM (inconclusive)

COc1cc(/C=C(/C#N)c2nc3ccccc3[nH]2)ccc1Oc1ncccc1[N+](=O)[O-]
AC50 (Cytochrome P450 2D6): 3.16 µM (inconclusive)

CC(C)(C)c1ccc(C(=O)N2CCC(C(=O)NC3CCCCCC3)CC2)cc1
CC50 [1]: 42 µM (active)

c1ccc2c(N3CCOCC3)nc(-c3ccncc3)nc2c1
CC50 [1]: 42.6 µM (active)

Cc1cc(C)c(C#N)c(OCC(=O)c2ccc(Br)cc2)n1
AC50 (Cytochrome P450 3A4): 3.55 µM (inconclusive)

O=C(Cc1sc(Nc2ccccc2)nc1-c1ccccc1)NCc1ccccc1
CC50 [1]: 11.2 µM (active)

CC1CCc2sc3nc(NCc4ccco4)n4ncnc4c3c2C1 (stereo not given)
CC50 [1]: 30.3 µM (active)

CCCS(=O)(=O)N1CCN(Cc2ccc3c(c2)c2ccccc2n3CC)CC1
CC50 [1]: 20.4 µM (active)

Cc1ccc(C2=NN(S(C)(=O)=O)C(c3cccs3)C2)cc1 (stereo not given)
AC50 (Cytochrome P450 2D6): 14.1 µM (inconclusive) | AC50 (Cytochrome P450 1A2): 31.6 µM (inconclusive)

Cc1ccc(NC2=NC(=O)CS2)cc1
CC50 [1]: 34.3 µM (active)

O=C(/C=C/c1cccc([N+](=O)[O-])c1)NCCSCc1ccccc1Cl
CC50 [1]: 25.4 µM (active)

Cn1nc([N+](=O)[O-])nc1Oc1ccccc1N
EC50 [2]: 1.08 µM (active) | EC50 [3]: > 60 µM (not active)

O=C(NCCN1CCN(C(=O)C(c2ccccc2)c2ccccc2)CC1)C(=O)Nc1ccccc1
AC50 (Cytochrome P450 2C9): 12.6 µM (inconclusive)

O=C(Oc1ccccc1)N1CCC2(CCCN(c3ccccn3)C2)CC1
AC50 (Cytochrome P450 2D6): 39.8 µM (inconclusive) | AC50 (Cytochrome P450 2C9): 5.01 µM (inconclusive)

CC(C)N1CCN(Cc2ccc(-c3ccccc3Cl)o2)CC1CCO (stereo not given)
EC50 [2]: 1.61 µM (active) | EC50 [3]: > 60 µM (inconclusive)

COc1ccc(CCNc2cc(C)nc3c(-c4ccccc4)cnn23)cc1OC
CC50 [1]: 43.2 µM (active)

CC(C)NC(=O)c1sc2nc3c(c(-c4cccs4)c2c1N)CN(C)CC3
EC50 [2]: 0.856 µM (active) | EC50 [3]: > 60 µM (inconclusive)

O=C(NCc1cccnc1)c1c(O)c2cccc3c2n(c1=O)CCC3
CC50 [1]: 22.8 µM (active)

CO[C@H]1COC(=O)C/C=C\[C@@H](C)COC(=O)[C@@H](OCc2ccccc2)/C=C\[C@@H]1C
AC50 (Cytochrome P450 3A4): 3.98 µM (inconclusive)

Cc1ccc(NC(=O)CC2CS(=O)(=O)CC2CC(=O)Nc2ccc(C)c(C)c2)cc1C (stereo not given)
AC50 (Cytochrome P450 2C9): 2.82 µM (inconclusive)

Cc1cc(NC(=S)Nc2ccccc2)ccc1Br
AC50 (Cytochrome P450 2C9): 11.2 µM (inconclusive)

Cc1nc(N2CCOCC2)nc(N2CCN(c3ccccc3)CC2)c1[N+](=O)[O-]
AC50 (Cytochrome P450 3A4): 3.55 µM (inconclusive)

COc1ccc(CCN(C)CC(=O)Nc2c(C)cc(C)cc2C)cc1OC
EC50 [2]: 0.592 µM (active) | EC50 [3]: > 60 µM (not active)

FC(F)(F)c1ccccc1-c1nccc(NCc2ccccc2)n1
AC50 (Cytochrome P450 2D6): 25.1 µM (inconclusive) | AC50 (Cytochrome P450 3A4): 31.6 µM (inconclusive) | AC50 (Cytochrome P450 2C9): 1 µM (inconclusive)

CC(=O)N1CCC2(CCCN(c3cccc(-c4ccccc4)c3)C2)CC1
AC50 (Cytochrome P450 2D6): 39.8 µM (inconclusive) | AC50 (Cytochrome P450 3A4): 7.94 µM (inconclusive)

O=C1Nc2ccccc2CCC1Sc1nnc(-c2ccc(Cl)cc2)s1 (stereo not given)
CC50 [1]: 3.7 µM (active)

COc1ccc(C(=O)C2CCCN(Cc3cnc(N4CCCC4)s3)C2)cc1OC (stereo not given)
EC50 [2]: 0.26 µM (active) | EC50 [3]: > 30 µM (not active)

COc1ccccc1NC(=O)COC(=O)c1ccc(S(=O)(=O)NCc2ccco2)cc1
AC50 (Cytochrome P450 2D6): 11.2 µM (inconclusive) | AC50 (Cytochrome P450 1A2): 12.6 µM (inconclusive)

NC(=O)C1CCN(C(=O)C(=O)c2cn(CC(=O)N3CCCCCC3)c3ccccc23)CC1
EC50 [2]: 1.32 µM (active) | EC50 [3]: > 60 µM (not active)

COc1cc(C(=O)NC(=S)Nc2cccc(-c3cc4ccccc4oc3=O)c2)cc(OC)c1OC
AC50 (Cytochrome P450 1A2): 2.82 µM (inconclusive)

Cc1ccc(CN(Cc2cccnc2)C(S)=Nc2cc(Cl)ccc2C)cc1
EC50 [2]: 1.61 µM (active) | EC50 [3]: > 60 µM (not active)

Cc1ccc(/C=C/C2=Cc3c(sc(NC(=O)CSc4nnc(N)[nH]4)c3C#N)C(C)(C)C2)o1
AC50 (Cytochrome P450 2D6): 22.4 µM (inconclusive)

CCCN(CC#CC(O)(c1ccccc1)c1cccnc1)CCC (stereo not given)
EC50 [2]: 0.463 µM (active) | EC50 [3]: > 60 µM (not active)

CO[C@@H]1/C=C\O[C@@]2(C)Oc3c(C)c(O)c4c(c3C2=O)/C(=N/[C@H]2CC[C@H](O)O[C@@H]2C)C=C(NC(=O)/C(C)=C\C(=O)[C@@H]2C[C@@H]2[C@@H](O)[C@H](C)[C@@H](O)[C@H](C)[C@H](OC(C)=O)[C@@H]1C)C4=O
AC50 (Cytochrome P450 2D6): 3.16 µM (inconclusive) | AC50 (Cytochrome P450 2C9): 3.98 µM (inconclusive)

c1cncc(-c2ccc3ncnc(NCCN4CCOCC4)c3c2)c1
AC50 (Cytochrome P450 2D6): 39.8 µM (inconclusive)

COCCn1c(=O)c(-c2ccc(F)cc2)nc2cncnc21
AC50 (Cytochrome P450 3A4): 12.6 µM (inconclusive)

CCOC(=O)c1cc2sc(C)cc2n1CCCN1C(=O)c2ccccc2C1=O
AC50 (Cytochrome P450 2D6): 15.8 µM (inconclusive)

Cc1ccc(S(=O)(=O)N2CCC(=O)N(C(COCc3ccc(Cl)cc3Cl)Cc3ccccc3)CC2)cc1 (stereo not given)
EC50 [2]: 1.58 µM (active) | EC50 [3]: 34.1 µM (active)

C[C@@H]1CC[C@H]2C(=O)NC[C@@H](O)CN2[C@@H]1c1ccc(Br)cc1
AC50 (Cytochrome P450 2D6): 3.16 µM (inconclusive) | AC50 (Cytochrome P450 3A4): 3.98 µM (inconclusive) | AC50 (Cytochrome P450 2C9): 5.01 µM (inconclusive)

CCOC(=O)c1oc2ccc(CNC3CCCCC3)c(Cl)c2c1C
EC50 [2]: 1.73 µM (active) | EC50 [3]: > 60 µM (not active)

Cc1ccc2ccc(S(=O)(=O)NCc3ccco3)cc2c1
CC50 [1]: 29.2 µM (active)

Cc1nc(N)sc1-c1csc(Nc2cccc(O)c2)n1
CC50 [1]: 48.4 µM (active)

O=C1CC(N2CCN(CCc3ccccn3)CC2)C(=O)N1c1ccc(Cl)cc1 (stereo not given)
AC50 (Cytochrome P450 2D6): 12.6 µM (inconclusive)

O=C(O)[C@H]([C@H]1NCCS1)N1C(=O)c2ccccc2C1=O
AC50 (Cytochrome P450 1A2): 5.01 µM (inconclusive)

CCCOc1ccc(N2C(=O)CC(SC(=N)N/N=C(\C)c3cccs3)C2=O)cc1 (stereo not given)
AC50 (Cytochrome P450 2D6): 15.8 µM (inconclusive) | AC50 (Cytochrome P450 1A2): 15.8 µM (inconclusive)

Cc1ccc2occ(/C=N/NC(N)=S)c(=O)c2c1
CC50 [1]: > 50 µM (active)

Cc1ccc([N+](=O)[O-])cc1/N=C(/c1cccc([N+](=O)[O-])c1)N1CCOCC1
AC50 (Cytochrome P450 3A4): 20 µM (inconclusive) | AC50 (Cytochrome P450 2C9): 25.1 µM (inconclusive)

COc1ccccc1CNc1ncnc2ccc(-c3ccccc3C#N)cc12
AC50 (Cytochrome P450 2D6): 3.16 µM (inconclusive) | AC50 (Cytochrome P450 2C9): 0.631 µM (inconclusive)

CCCCOC(=O)c1ccc(O)cc1 [BUTYLPARABEN]
AC50 (Cytochrome P450 2D6): 12.6 µM (inconclusive)

Cc1sc2ccccc2c1CC1=NCCN1 [METIZOLINE]
AC50 (Cytochrome P450 2D6): 31.6 µM (inconclusive)

C[C@H]1[C@H](C)CC[C@]2(C(=O)O)CC[C@]3(C)C(=CC[C@@H]4[C@@]5(C)CC[C@H](O)C(C)(C)[C@@H]5CC[C@]43C)[C@H]12 [URSOLIC ACID]
CC50 [1]: 28.4 µM (active) | EC50 [4]: 0.949 µM (active) | EC50 (Streptococcus): 0.88 µM (active)
